Each block holds one compound with its values, some of them ahead of it.
How the values were obtained:
Assay in all cases: Caliper, Mobility shift assay off-chip
AKT2 (human) = AKT2 (human) (UniProt P31751)
BRSK1 (human) = BRSK1 (human) (UniProt Q8TDC3)
CDK9 (human) = CDK9 (human) (UniProt P50750)
CSNK2A1 (human) = CSNK2A1 (human) (UniProt P68400)
CSNK2A2 (human) = CSNK2A2 (human) (UniProt P19784)
EPHA4 (human) = EPHA4 (human) (UniProt P54764)
EPHB2 (human) = EPHB2 (human) (UniProt P29323)
FGFR2 (human) = FGFR2 (human) (UniProt P21802)
FLT1 (human) = FLT1 (human) (UniProt P17948)
FLT3 (human) = FLT3 (human) (UniProt P36888)
IKBKB (human) = IKBKB (human) (UniProt O14920)
JAK1 JH1 JH2 (human) = JAK1 JH1 JH2 (human) (UniProt P23458)
LATS2 (human) = LATS2 (human) (UniProt Q9NRM7)
MAP4K2 (human) = MAP4K2 (human) (UniProt Q12851)
MAPK1 (human) = MAPK1 (human) (UniProt P28482)
MAPK11 (human) = MAPK11 (human) (UniProt Q15759)
MAPKAPK5 (human) = MAPKAPK5 (human) (UniProt Q8IW41)
MERTK (human) = MERTK (human) (UniProt Q12866)
MST4 (human) = MST4 (human) (UniProt Q9P289)
NIM1 (human) = NIM1 (human) (UniProt Q8IY84)
NTRK2 (human) = NTRK2 (human) (UniProt Q16620)
NUAK2 (human) = NUAK2 (human) (UniProt Q9H093)
PAK3 (human) = PAK3 (human) (UniProt O75914)
PAK4 (human) = PAK4 (human) (UniProt O96013)
PBK (human) = PBK (human) (UniProt Q96KB5)
PHKG2 (human) = PHKG2 (human) (UniProt P15735)
PIM1 (human) = PIM1 (human) (UniProt P11309)
PRKACG (human) = PRKACG (human) (UniProt P22612)
PRKCZ (human) = PRKCZ (human) (UniProt Q05513)
SRC (human) = SRC (human) (UniProt P12931)
STK24 (human) = STK24 (human) (UniProt Q9Y6E0)
TSSK1B (human) = TSSK1B (human) (UniProt Q9BXA7)
ZAP70 (human) = ZAP70 (human) (UniProt P43403)
MAPK8 (human) = MAPK8 (human) (UniProt P45983)

PIM1 (human), sequence (P11309 whole entry, looked up): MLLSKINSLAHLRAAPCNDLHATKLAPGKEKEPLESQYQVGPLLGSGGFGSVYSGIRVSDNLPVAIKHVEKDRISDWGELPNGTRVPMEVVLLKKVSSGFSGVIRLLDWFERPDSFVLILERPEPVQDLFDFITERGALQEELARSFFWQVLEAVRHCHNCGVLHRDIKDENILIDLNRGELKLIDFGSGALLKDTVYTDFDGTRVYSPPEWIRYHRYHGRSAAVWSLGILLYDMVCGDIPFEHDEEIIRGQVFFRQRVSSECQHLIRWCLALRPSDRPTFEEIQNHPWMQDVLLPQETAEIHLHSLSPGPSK
FLT3 (human), sequence (P36888 whole entry, looked up): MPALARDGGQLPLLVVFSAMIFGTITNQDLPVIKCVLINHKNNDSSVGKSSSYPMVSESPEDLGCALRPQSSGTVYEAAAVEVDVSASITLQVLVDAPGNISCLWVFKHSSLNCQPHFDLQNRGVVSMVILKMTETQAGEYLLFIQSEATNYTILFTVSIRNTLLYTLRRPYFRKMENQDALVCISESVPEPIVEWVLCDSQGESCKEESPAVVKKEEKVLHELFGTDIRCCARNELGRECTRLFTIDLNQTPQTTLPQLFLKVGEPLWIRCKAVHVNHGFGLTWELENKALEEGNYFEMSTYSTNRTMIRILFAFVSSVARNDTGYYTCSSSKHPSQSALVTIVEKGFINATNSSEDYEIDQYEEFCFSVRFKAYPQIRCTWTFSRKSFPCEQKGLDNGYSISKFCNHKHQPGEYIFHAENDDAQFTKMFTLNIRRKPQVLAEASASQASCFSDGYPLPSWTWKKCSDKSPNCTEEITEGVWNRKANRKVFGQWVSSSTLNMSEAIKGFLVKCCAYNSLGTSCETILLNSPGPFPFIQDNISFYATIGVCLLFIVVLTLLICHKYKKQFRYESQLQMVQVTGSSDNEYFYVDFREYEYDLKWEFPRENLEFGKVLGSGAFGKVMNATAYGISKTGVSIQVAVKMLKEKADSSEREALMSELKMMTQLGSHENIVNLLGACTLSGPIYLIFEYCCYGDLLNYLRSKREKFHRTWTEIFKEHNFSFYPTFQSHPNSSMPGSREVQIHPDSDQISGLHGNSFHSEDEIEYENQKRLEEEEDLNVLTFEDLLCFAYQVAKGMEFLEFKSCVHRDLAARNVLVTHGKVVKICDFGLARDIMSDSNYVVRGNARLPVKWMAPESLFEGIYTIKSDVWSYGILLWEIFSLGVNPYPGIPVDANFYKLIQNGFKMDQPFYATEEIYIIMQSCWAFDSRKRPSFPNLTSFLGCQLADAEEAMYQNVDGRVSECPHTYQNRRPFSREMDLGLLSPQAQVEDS
NTRK2 (human), sequence (Q16620 whole entry, looked up): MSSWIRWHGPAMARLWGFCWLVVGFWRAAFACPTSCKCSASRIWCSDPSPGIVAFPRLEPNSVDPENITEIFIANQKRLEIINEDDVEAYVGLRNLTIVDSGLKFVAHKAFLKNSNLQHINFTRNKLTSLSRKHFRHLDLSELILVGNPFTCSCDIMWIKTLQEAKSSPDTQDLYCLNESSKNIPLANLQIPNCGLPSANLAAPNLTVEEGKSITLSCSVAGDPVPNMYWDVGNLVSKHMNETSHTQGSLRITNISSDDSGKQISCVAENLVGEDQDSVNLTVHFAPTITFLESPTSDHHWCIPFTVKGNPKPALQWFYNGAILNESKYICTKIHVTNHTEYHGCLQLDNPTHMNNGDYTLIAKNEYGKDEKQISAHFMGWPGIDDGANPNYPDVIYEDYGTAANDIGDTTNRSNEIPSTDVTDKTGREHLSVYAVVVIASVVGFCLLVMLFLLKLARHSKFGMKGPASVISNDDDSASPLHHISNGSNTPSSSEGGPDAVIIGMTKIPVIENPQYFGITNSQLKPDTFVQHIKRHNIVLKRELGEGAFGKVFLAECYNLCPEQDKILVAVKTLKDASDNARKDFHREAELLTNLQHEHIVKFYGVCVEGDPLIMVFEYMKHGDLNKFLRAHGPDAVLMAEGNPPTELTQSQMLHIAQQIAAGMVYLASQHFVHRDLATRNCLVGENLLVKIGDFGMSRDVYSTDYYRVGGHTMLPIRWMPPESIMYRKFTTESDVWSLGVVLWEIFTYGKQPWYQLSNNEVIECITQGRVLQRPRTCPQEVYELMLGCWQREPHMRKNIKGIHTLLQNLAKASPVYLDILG
MST4 (human), sequence (Q9P289 whole entry, looked up): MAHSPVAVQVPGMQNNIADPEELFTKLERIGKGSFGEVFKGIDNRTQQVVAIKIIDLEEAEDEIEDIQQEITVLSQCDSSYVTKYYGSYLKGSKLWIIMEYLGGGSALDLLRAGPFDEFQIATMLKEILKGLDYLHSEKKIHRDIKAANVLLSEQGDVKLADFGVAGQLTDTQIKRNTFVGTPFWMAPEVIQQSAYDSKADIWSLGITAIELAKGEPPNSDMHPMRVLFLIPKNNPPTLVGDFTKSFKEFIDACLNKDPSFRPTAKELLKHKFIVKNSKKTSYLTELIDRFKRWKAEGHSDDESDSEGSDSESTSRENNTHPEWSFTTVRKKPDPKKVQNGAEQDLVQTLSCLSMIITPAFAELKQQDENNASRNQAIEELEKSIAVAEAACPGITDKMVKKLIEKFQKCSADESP
CSNK2A1 (human), sequence (P68400 whole entry, looked up): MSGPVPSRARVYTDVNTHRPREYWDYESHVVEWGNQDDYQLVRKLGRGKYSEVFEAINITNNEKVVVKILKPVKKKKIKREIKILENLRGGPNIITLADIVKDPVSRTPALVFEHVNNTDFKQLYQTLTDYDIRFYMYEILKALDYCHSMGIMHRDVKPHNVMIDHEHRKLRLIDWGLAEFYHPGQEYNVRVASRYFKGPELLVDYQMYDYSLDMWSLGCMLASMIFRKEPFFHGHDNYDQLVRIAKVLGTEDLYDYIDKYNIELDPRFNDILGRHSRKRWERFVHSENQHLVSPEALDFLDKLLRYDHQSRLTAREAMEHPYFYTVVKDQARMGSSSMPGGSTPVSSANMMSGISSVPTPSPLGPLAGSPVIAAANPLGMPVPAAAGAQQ
EPHA4 (human), sequence (P54764 whole entry, looked up): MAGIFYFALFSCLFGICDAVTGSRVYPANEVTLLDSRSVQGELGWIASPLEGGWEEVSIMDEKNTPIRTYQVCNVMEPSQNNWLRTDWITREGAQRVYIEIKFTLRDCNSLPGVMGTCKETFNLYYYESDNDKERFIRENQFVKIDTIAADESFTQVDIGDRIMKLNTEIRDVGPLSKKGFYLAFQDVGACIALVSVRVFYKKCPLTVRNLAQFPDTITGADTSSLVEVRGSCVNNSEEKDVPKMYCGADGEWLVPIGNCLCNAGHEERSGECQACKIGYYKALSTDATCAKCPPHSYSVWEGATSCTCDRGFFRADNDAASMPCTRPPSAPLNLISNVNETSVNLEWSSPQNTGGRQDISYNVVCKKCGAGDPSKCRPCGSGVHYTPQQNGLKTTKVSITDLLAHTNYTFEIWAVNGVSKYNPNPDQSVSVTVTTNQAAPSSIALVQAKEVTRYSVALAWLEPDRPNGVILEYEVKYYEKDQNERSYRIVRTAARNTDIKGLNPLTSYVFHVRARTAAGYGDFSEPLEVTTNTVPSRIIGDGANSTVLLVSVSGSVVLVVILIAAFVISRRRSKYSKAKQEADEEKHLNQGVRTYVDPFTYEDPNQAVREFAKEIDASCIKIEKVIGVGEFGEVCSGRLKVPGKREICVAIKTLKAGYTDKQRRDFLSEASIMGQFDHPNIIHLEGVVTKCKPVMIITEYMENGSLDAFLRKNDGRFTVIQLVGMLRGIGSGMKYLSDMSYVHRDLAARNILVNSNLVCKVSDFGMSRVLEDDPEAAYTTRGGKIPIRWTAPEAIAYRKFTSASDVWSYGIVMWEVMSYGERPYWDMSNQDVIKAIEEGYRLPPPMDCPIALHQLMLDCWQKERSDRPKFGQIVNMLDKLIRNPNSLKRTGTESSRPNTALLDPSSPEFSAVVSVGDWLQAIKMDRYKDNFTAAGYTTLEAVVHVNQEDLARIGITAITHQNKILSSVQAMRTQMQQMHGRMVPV
JAK1 JH1 JH2 (human), sequence (P23458 whole entry, looked up): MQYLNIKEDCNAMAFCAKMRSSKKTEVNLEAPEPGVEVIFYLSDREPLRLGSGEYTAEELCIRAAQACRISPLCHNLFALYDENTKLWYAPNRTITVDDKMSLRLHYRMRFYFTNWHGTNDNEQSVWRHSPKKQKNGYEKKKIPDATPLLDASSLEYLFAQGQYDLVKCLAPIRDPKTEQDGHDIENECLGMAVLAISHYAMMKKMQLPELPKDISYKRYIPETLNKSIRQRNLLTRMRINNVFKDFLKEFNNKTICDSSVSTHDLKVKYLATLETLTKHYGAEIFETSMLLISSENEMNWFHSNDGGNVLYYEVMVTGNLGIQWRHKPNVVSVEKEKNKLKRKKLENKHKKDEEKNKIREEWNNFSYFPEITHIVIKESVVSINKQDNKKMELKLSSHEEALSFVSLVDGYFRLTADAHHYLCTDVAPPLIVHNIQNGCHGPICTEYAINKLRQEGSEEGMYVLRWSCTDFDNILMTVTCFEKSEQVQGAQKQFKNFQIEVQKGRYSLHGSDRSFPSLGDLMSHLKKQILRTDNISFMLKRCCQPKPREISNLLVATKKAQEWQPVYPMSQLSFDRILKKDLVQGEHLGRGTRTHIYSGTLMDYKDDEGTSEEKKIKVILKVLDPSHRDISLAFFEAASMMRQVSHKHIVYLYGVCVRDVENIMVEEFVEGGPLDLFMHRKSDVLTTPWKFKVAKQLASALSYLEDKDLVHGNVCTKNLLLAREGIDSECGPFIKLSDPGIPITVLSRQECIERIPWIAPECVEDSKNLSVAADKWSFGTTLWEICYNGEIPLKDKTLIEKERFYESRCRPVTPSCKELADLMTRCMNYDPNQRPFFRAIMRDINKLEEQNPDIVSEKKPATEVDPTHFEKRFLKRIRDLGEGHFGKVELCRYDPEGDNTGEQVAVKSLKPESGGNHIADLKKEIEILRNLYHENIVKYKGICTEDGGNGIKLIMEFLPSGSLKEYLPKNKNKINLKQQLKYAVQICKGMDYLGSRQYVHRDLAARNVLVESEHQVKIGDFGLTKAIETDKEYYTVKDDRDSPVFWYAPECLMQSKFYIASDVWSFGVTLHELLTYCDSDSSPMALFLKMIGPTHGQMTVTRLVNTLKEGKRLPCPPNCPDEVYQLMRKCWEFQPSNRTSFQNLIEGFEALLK

inhibition (AKT2 (human); compound 0.02 µM): 4.7%
inhibition (AKT2 (human); compound 0.2 µM): 3%
inhibition (BRSK1 (human); compound 0.02 µM): 5.3%
inhibition (BRSK1 (human); compound 0.2 µM): 3.2%
inhibition (CDK9 (human); compound 0.02 µM): -2.5%
inhibition (CDK9 (human); compound 0.2 µM): 5.1%
inhibition (CSNK2A1 (human); compound 0.02 µM): -3%
inhibition (CSNK2A1 (human); compound 0.2 µM): -2.4%
inhibition (CSNK2A2 (human); compound 0.02 µM): -2.8%
inhibition (CSNK2A2 (human); compound 0.2 µM): -1.4%
inhibition (EPHA4 (human); compound 0.02 µM): -4.7%
inhibition (EPHA4 (human); compound 0.2 µM): 0.2%
inhibition (EPHB2 (human); compound 0.02 µM): -1.3%
inhibition (EPHB2 (human); compound 0.2 µM): -2.7%
inhibition (FGFR2 (human); compound 0.02 µM): 29%
inhibition (FGFR2 (human); compound 0.2 µM): 82.6%
inhibition (FLT1 (human); compound 0.02 µM): 66.5%
inhibition (FLT1 (human); compound 0.2 µM): 99.8%
inhibition (FLT3 (human); compound 0.02 µM): 24.7%
inhibition (FLT3 (human); compound 0.2 µM): 69.9%
inhibition (IKBKB (human); compound 0.02 µM): -3.7%
inhibition (IKBKB (human); compound 0.2 µM): -2.6%
inhibition (JAK1 JH1 JH2 (human); compound 0.02 µM): -2.2%
inhibition (JAK1 JH1 JH2 (human); compound 0.2 µM): 0.8%
inhibition (LATS2 (human); compound 0.02 µM): -2.1%
inhibition (LATS2 (human); compound 0.2 µM): -0.3%
inhibition (MAP4K2 (human); compound 0.02 µM): 2.6%
inhibition (MAP4K2 (human); compound 0.2 µM): 28.7%
inhibition (MAPK1 (human); compound 0.02 µM): -10.8%
inhibition (MAPK1 (human); compound 0.2 µM): -6.6%
inhibition (MAPK11 (human); compound 0.02 µM): -6.7%
inhibition (MAPK11 (human); compound 0.2 µM): 0.9%
inhibition (MAPKAPK5 (human); compound 0.02 µM): 3.2%
inhibition (MAPKAPK5 (human); compound 0.2 µM): 4.8%
inhibition (MERTK (human); compound 0.02 µM): 3%
inhibition (MERTK (human); compound 0.2 µM): 15.6%
inhibition (MST4 (human); compound 0.02 µM): -9.1%
inhibition (MST4 (human); compound 0.2 µM): -4%
inhibition (NIM1 (human); compound 0.02 µM): -11.7%
inhibition (NIM1 (human); compound 0.2 µM): 10.4%
inhibition (NTRK2 (human); compound 0.02 µM): 5.5%
inhibition (NTRK2 (human); compound 0.2 µM): 14.7%
inhibition (NUAK2 (human); compound 0.02 µM): -16.5%
inhibition (NUAK2 (human); compound 0.2 µM): 6.3%
inhibition (PAK3 (human); compound 0.02 µM): 5.7%
inhibition (PAK3 (human); compound 0.2 µM): 2.6%
inhibition (PAK4 (human); compound 0.02 µM): 0.9%
inhibition (PAK4 (human); compound 0.2 µM): 8%
inhibition (PBK (human); compound 0.02 µM): -3.9%
inhibition (PBK (human); compound 0.2 µM): -9.3%
inhibition (PHKG2 (human); compound 0.02 µM): -3.5%
inhibition (PHKG2 (human); compound 0.2 µM): -1.8%
inhibition (PIM1 (human); compound 0.02 µM): -4.2%
inhibition (PIM1 (human); compound 0.2 µM): 0.8%
inhibition (PRKACG (human); compound 0.02 µM): -6.9%
inhibition (PRKACG (human); compound 0.2 µM): -6.6%
inhibition (PRKCZ (human); compound 0.02 µM): 2.5%
inhibition (PRKCZ (human); compound 0.2 µM): -1.1%
inhibition (SRC (human); compound 0.02 µM): 8.4%
inhibition (SRC (human); compound 0.2 µM): 42.7%
inhibition (STK24 (human); compound 0.02 µM): 0.2%
inhibition (STK24 (human); compound 0.2 µM): 3.4%
inhibition (TSSK1B (human); compound 0.02 µM): -1.1%
inhibition (TSSK1B (human); compound 0.2 µM): -1.7%
inhibition (ZAP70 (human); compound 0.02 µM): 7%
inhibition (ZAP70 (human); compound 0.2 µM): 13.3%
Compound: Cc1ccc(Nc2nccc(N(C)c3ccc4c(C)n(C)nc4c3)n2)cc1S(N)(=O)=O

inhibition (BRSK1 (human); compound 0.2 µM): 40%
inhibition (BRSK1 (human); compound 4.0 µM): 86.6%
inhibition (CDK9 (human); compound 0.2 µM): -0.1%
inhibition (CDK9 (human); compound 4.0 µM): 47.5%
inhibition (CSNK2A1 (human); compound 0.2 µM): -0.4%
inhibition (CSNK2A1 (human); compound 4.0 µM): 19.9%
inhibition (CSNK2A2 (human); compound 0.2 µM): 4.5%
inhibition (CSNK2A2 (human); compound 4.0 µM): 41.2%
inhibition (EPHA4 (human); compound 0.2 µM): 2.1%
inhibition (EPHA4 (human); compound 4.0 µM): 40.8%
inhibition (EPHB2 (human); compound 0.2 µM): 22.2%
inhibition (EPHB2 (human); compound 4.0 µM): 79.1%
inhibition (FGFR2 (human); compound 0.2 µM): 71.3%
inhibition (FGFR2 (human); compound 4.0 µM): 99.7%
inhibition (FLT1 (human); compound 0.2 µM): 90.4%
inhibition (FLT1 (human); compound 4.0 µM): 103%
inhibition (FLT3 (human); compound 0.2 µM): 100%
inhibition (FLT3 (human); compound 4.0 µM): 102%
inhibition (IKBKB (human); compound 0.2 µM): -2.1%
inhibition (IKBKB (human); compound 4.0 µM): 4.2%
inhibition (JAK1 JH1 JH2 (human); compound 0.2 µM): 10.9%
inhibition (JAK1 JH1 JH2 (human); compound 4.0 µM): 70.4%
inhibition (MAP4K2 (human); compound 0.2 µM): 69.5%
inhibition (MAPK1 (human); compound 0.2 µM): -7.5%
inhibition (MAPK1 (human); compound 4.0 µM): -1.7%
inhibition (MAPK11 (human); compound 0.2 µM): -1.4%
inhibition (MAPK11 (human); compound 4.0 µM): -3.1%
inhibition (MAPK8 (human); compound 0.2 µM): -3.9%
inhibition (MAPK8 (human); compound 4.0 µM): -16%
inhibition (MAPKAPK5 (human); compound 0.2 µM): 6%
inhibition (MAPKAPK5 (human); compound 4.0 µM): 45.2%
inhibition (MERTK (human); compound 0.2 µM): 96%
inhibition (MERTK (human); compound 4.0 µM): 104%
inhibition (MST4 (human); compound 0.2 µM): 4%
inhibition (MST4 (human); compound 4.0 µM): 63.2%
inhibition (NIM1 (human); compound 0.2 µM): 17.9%
inhibition (NIM1 (human); compound 4.0 µM): 67.1%
inhibition (NTRK2 (human); compound 0.2 µM): 85.7%
inhibition (NTRK2 (human); compound 4.0 µM): 101%
inhibition (NUAK2 (human); compound 0.2 µM): 55.7%
inhibition (NUAK2 (human); compound 4.0 µM): 95.3%
inhibition (PAK4 (human); compound 0.2 µM): 16.2%
inhibition (PAK4 (human); compound 4.0 µM): 62.8%
inhibition (PBK (human); compound 0.2 µM): -6.1%
inhibition (PBK (human); compound 4.0 µM): -7.6%
inhibition (PHKG2 (human); compound 0.2 µM): 85.2%
inhibition (PHKG2 (human); compound 4.0 µM): 99%
inhibition (PIM1 (human); compound 0.2 µM): -0.2%
inhibition (PIM1 (human); compound 4.0 µM): 19.2%
inhibition (PRKACG (human); compound 0.2 µM): -4.4%
inhibition (PRKACG (human); compound 4.0 µM): 28.9%
inhibition (PRKCZ (human); compound 0.2 µM): -1.5%
inhibition (PRKCZ (human); compound 4.0 µM): 13.5%
inhibition (STK24 (human); compound 0.2 µM): 47.8%
inhibition (STK24 (human); compound 4.0 µM): 95.7%
inhibition (TSSK1B (human); compound 0.2 µM): 63.2%
inhibition (TSSK1B (human); compound 4.0 µM): 95.5%
inhibition (ZAP70 (human); compound 0.2 µM): 6.8%
inhibition (ZAP70 (human); compound 4.0 µM): 37.7%
Compound: CCN(CC)CCNC(=O)c1c(C)[nH]c(/C=C2\C(=O)Nc3ccc(F)cc32)c1C

— the kinase profiling compilation of Christmann-Franck et al. (2016)
